We go through nine molecules from article doi:10.1101/2022.03.07.483284v1 (biorxiv, 2022).

The target in test [1] is T1, WTapPOL (intact exonuclease domain) (Plasmodium falciparum, UniProt Q8ILY1).
T1 sequence (Q8ILY1 1389-2016): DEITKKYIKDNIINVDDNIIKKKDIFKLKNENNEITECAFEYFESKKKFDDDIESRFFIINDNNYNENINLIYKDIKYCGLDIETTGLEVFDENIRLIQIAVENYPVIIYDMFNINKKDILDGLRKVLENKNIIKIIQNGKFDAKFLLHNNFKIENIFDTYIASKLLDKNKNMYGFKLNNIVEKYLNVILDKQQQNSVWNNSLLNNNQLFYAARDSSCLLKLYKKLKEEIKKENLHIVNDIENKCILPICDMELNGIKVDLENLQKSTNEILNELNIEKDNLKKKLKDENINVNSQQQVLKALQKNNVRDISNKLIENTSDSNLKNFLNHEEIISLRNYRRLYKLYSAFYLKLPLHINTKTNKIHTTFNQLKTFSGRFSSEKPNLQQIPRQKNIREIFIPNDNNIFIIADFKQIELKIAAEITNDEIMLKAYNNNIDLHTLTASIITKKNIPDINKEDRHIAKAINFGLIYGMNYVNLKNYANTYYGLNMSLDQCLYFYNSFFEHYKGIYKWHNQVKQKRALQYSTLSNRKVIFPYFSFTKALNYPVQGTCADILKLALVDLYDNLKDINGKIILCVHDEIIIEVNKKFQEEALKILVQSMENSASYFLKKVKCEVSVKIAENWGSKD
Kind of test: […]'-5' exonuclease assay, 2-aminopurine release from blunt-ended dsDNA. The format is biochemical. As to conditions: read-out: % inhibition at 100 μM.

Test [2] deals with T1, WTapPOL (intact exonuclease domain). Described as above. The format is biochemical.

Molecules are shown by their SMILES. A value given as a limit tells only on which side of the number the result lay.

A word on the inhibition: it is the percentage by which the read-out fell short of the control. For `CC(C)(C)c1ccc(C(=O)Nc2c3c(nn2-c2cccc(Cl)c2)CSC3)cc1` [5a, MMV666123], the inhibition at 100 µM in test [1] was below 50%.

In general, IC50 refers to the point on the concentration scale where inhibition reaches its midpoint. Lower therefore signals inhibition by little substance. `CC(C)(C)c1ccc(S(=O)(=O)Nc2c3c(nn2-c2cccc(Cl)c2)CSC3)cc1` [6a]: the midpoint of inhibition in test [2], the IC50, lay at 40 ± 5.7 µM.

On to `CC(C)(C)c1ccc(S(=O)(=O)Nc2c3c(nn2-c2ccc(Cl)cc2)CSC3)cc1` [6b], for which inhibition in test [2] was half-maximal at 21 ± 2.5 µM (IC50).

Turning to `CC(C)(C)c1ccc(S(=O)(=O)Nc2c3c(nn2-c2cccc(C(F)(F)F)c2)CSC3)cc1` [6e], in test [2], half-maximal inhibition (IC50) required 41 ± 6.7 µM.

The molecule `CC(C)(C)c1ccc(S(=O)(=O)Nc2c3c(nn2-c2ccc(C(F)(F)F)cc2)CSC3)cc1` [6f] gave an IC50 in test [2] of 16 ± 0.9 µM.

Consider `CC(C)(C)c1ccc(NC(=O)Nc2c3c(nn2-c2cccc(Cl)c2)CSC3)cc1` [7a], for which, in test [1], the inhibition at 100 µM was below 50%.

Consider `CC(C)(C)c1ccc(NC(=O)Nc2c3c(nn2-c2ccc(Cl)cc2)CSC3)cc1` [7b], for which the inhibition at 100 µM in test [1] was below 50%.

Take `CC(C)(C)c1ccc(NC(=O)Nc2c3c(nn2-c2cccc(C(F)(F)F)c2)CSC3)cc1` [7e]: the inhibition at 100 µM in test [1] is below 50%.

In the case of `CC(C)(C)c1ccc(NC(=O)Nc2c3c(nn2-c2cccc(Cl)c2)COC3)cc1` [13a], in test [1], the inhibition at 100 µM was below 50%.
